Measurements reported in patent US6815440B2, “Cyclic and heterocyclic N-substituted α-iminohydroxamic and -carboxylic acids” (Aventis Pharma Deutschland GmbH, priority 1995, dated 2004).
Like-named read-outs stand apart in the source and are kept apart here.

Columns and labels:
[1] = target: T1, catalytic domain of human stromelysine (Homo sapiens, UniProt P08254); assay: Enzyme inhibition, catalytic domain of human stromelysine (fluorogenic substrate); format: biochemical; settings: read-out: Stromelysine IC 50
T1 construct: enzymatic activity of the catalytic domains of human stomelysine and of neutrophil collagenase; made in house
Description: (§1) Preparation and determination of the enzymatic activity of the catalytic domains of human stomelysine and of neutrophil collagenase.
(§2) The two enzymes were prepared according to Ye et al., (Biochemistry 31 (1992) 11231-5). To measure the enzyme activity or enzyme inhibitor action, 70 μl of buffer solution and 10 μl of enzyme solution are incubated for 15 minutes with 10 μl of a 10% strength (v/v) aqueous dimethyl sulfoxide solution, which optionally contains the enzyme inhibitor. After addition of 10 μl of a 10% strength (v/v) aqueous dimethyl sulfoxide solution which contains 1 mmol/l of the substrate, the enzyme reaction is monitored by fluorescence spectroscopy (328 nm (ex)/393 nm(em)). The enzyme activity is shown as extinction increase/minute. […] The buffer solution contains 0.05% of Brij (Sigma, Deisenhofen, Germany) and also 0.1 mol/l of tris/HCl, 0.1 mol/l of NaCl, 0.01 mol/l of CaCl2 (pH=7.5) for the determination of the hydroxamic acids up to and including Example 33, or, for the determination of the carboxylic acids from Example 34, 0.1 mol/l of piperazine-N,N′-bis[2-ethanesulfonic acid] pH=6.5.
(§3) The enzyme solution contains 5 μg/ml of one of the enzyme domains prepared according to Ye et al. The substrate solution contains 1 mmol/l of the fluorogenic substrate (7-methoxycoumarin-4-yl)acetyl-Pro-Leu-Gly-Leu-3-(2′,4′-dinitrophenyl)-L-2,3-diaminopropionyl-Ala-Arg-NH2 (Bachem, Heidelberg, Germany).

[2] = target: T2, catalytic domain of neutrophil collagenase (Homo sapiens, UniProt P22894); assay: Enzyme inhibition, catalytic domain of neutrophil collagenase (fluorogenic substrate); format: biochemical; settings: read-out: Neutrophil collagenase IC 50
T2 construct: enzymatic activity of the catalytic domains of human stomelysine and of neutrophil collagenase; made in house
Description: as §1, §2, §3

[3] = hydroxamic acids up to and including Example 33, tris/HCl buffer pH=7.5
[4] = carboxylic acids from Example 34, piperazine-N,N'-bis[2-ethanesulfonic acid] buffer pH=6.5

T1 sequence (P08254 100-272 limits assumed): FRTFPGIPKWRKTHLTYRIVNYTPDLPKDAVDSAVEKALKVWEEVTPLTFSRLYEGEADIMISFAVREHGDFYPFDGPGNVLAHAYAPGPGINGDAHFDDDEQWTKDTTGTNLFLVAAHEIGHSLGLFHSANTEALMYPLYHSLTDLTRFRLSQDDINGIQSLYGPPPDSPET
T2 sequence (P22894 100-262 limits assumed): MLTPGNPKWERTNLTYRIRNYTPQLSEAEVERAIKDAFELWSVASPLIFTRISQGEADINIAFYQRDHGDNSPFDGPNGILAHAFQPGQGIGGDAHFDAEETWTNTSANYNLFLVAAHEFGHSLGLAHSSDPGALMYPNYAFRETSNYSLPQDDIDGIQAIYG

SMILES	melting point	IC50 [1, 3]	IC50 [2, 3]	IC50 [1, 4]	IC50 [2, 4]
O=C(O)[C@H]1Cc2cc3c(cc2CN1S(=O)(=O)c1ccc(Oc2ccccc2)cc1)OCO3 [Example 54]	226 to 228 °C	–	–	–	–
COc1ccc(S(=O)(=O)N2CCc3cc4c(cc3C2C(=O)NO)CCC4)cc1 (centres unmarked) [Example 27]	–	30 nM	4 nM	–	–
O=C(O)[C@H]1Cc2c([nH]c3ccccc23)CN1S(=O)(=O)c1ccc(Oc2ccccc2)cc1 [Example 57]	115 °C	–	–	2000 nM	100 nM
O=C(O)[C@H]1Cc2ccccc2CN1S(=O)(=O)c1ccc(Oc2ccc(Cl)cc2)cc1 [Example 42, R-2-[4-(4-chlorophenoxy)benzenesulfonyl]-1,2,3,4-tetrahydroisoquinoline-3-carboxylic acid]	167 to 168 °C	–	–	500 nM	20 nM
O=C(c1ccccc1)c1ccc(S(=O)(=O)N2Cc3ccccc3C[C@@H]2C(=O)O)cc1 [Example 45]	–	–	–	3000 nM	300 nM
O=C(NO)C1Cc2ccccc2CN1S(=O)(=O)N1CCOCC1 (centres unmarked) [Example 26, 2-(Morpholinosulfonyl)-1,2,3,4-tetrahydroisoquinoline-3-hydroxamic acid]	–	6000 nM	300 nM	–	–
O=C(O)[C@H]1Cc2ccccc2CN1S(=O)(=O)c1ccc(-c2nc3ccccc3o2)cc1 [Example 47]	211 to 213 °C	–	–	–	–
O=C(O)[C@@H]1Cc2ccccc2CN1S(=O)(=O)c1ccc(-c2ccc(Cl)cc2)cc1 [Example 36]	–	–	–	–	3000 nM
COc1ccc(S(=O)(=O)N2Cc3c(cc(OC)c(OC)c3OC)CC2C(=O)NO)cc1 (centres unmarked) [Example 25, 2-(4-Methoxybenzenesulfonyl)-6,7,8-trimethoxy-1,2,3,4-tetrahydroisoquinoline-3-hydroxamic acid]	–	400 nM	300 nM	–	–
O=C(O)[C@H]1Cc2ccc([N+](=O)[O-])cc2CN1S(=O)(=O)c1ccc(-c2ccc(F)cc2)cc1 [Example 52]	–	–	–	1000 nM	40 nM
O=C(NO)[C@H]1Cc2c([nH]c3ccccc23)CN1S(=O)(=O)c1ccc(N2CCOCC2)cc1 [Example 33, R-2-(4-morpholinobenzenesulfonyl)-1,2,3,4-tetrahydro-9H-pyrido(3,4-b)-indole-3-hydroxamic acid]	125 °C (dec.)	300 nM	70 nM	–	–
O=C(O)[C@H]1Cc2ccccc2CN1S(=O)(=O)c1ccc(OCc2ccc(F)cc2)cc1 [Example 44]	–	–	–	200 nM	30 nM
O=C(NO)[C@H]1Cc2ccccc2CN1S(=O)(=O)C1=CC2=CC=CCC2C=C1 (some centres unmarked) [Example 11]	–	400 nM	70 nM	–	–
O=C(O)[C@H]1Cc2ccccc2CN1S(=O)(=O)c1ccc(Oc2ccccc2)cc1 [41 (13b), R-2-(4-phenoxybenzenesulfonyl)-1,2,3,4-tetrahydroisoquinoline-3-carboxylic acid]	147 °C	–	–	200 nM	9 nM
O=C(NO)C1Cc2ccccc2CN1S(=O)(=O)CCc1ccccc1 (centres unmarked) [Example 17]	–	100 nM	–	–	–
O=C(O)[C@H]1Cc2cc([N+](=O)[O-])ccc2CN1S(=O)(=O)c1ccc(-c2ccc(F)cc2)cc1 [Example 53]	–	–	–	500 nM	20 nM
CCOC(=O)Nc1cccc(S(=O)(=O)N2Cc3ccccc3CC2C(=O)NO)c1 (centres unmarked) [Example 5]	–	6000 nM	–	–	–
COc1ccc(S(=O)(=O)N2c3ccccc3CC2C(=O)NO)cc1 (centres unmarked) [Example 28, 1-(4-Methoxybenzenesulfonyl)indoline-2-hydroxamic acid]	142 °C	2000 nM	700 nM	–	–
O=C(NO)[C@H]1Cc2ccccc2CN1S(=O)(=O)c1ccc(-c2ccc(Cl)cc2)cc1 [Example 3]	–	30 nM	2 nM	–	–

SMILES	melting point	IC50 [1, 3]	IC50 [2, 3]	IC50 [1, 4]	IC50 [2, 4]
O=C(O)[C@H]1Cc2ccc([N+](=O)[O-])cc2CN1S(=O)(=O)c1ccc(-c2ccc(Cl)cc2)cc1 [Example 50]	–	–	–	600 nM	30 nM
O=C(O)[C@H]1Cc2cc([N+](=O)[O-])ccc2CN1S(=O)(=O)c1ccc(-c2ccc(Cl)cc2)cc1 [Example 51]	–	–	–	500 nM	20 nM
CN(C)c1cccc2c(S(=O)(=O)N3Cc4ccccc4C[C@@H]3C(=O)NO)cccc12 [Example 12]	–	400 nM	200 nM	–	–
COc1ccc(S(=O)(=O)N2Cc3cc([N+](=O)[O-])ccc3CC2C(=O)NO)cc1 (centres unmarked) [Example 23]	–	80 nM	8 nM	–	–
COc1ccc(S(=O)(=O)N2Cc3[nH]c4ccccc4c3C[C@@H]2C(=O)NO)cc1 [Example 31, R-2-(4-methoxybenzenesulfonyl)-1,2,3,4-tetrahydro-9H-pyrido-(3,4-b)-indole-3-hydroxamic acid]	–	20 nM	3 nM	–	–
CN(C)c1ccc(-c2ccc(S(=O)(=O)N3Cc4ccccc4C[C@@H]3C(=O)O)cc2)cc1.Cl [Example 39]	122 to 135 °C	–	–	100 nM	1 nM
O=C(NO)[C@H]1Cc2ccccc2CN1S(=O)(=O)c1ccc2oc3ccccc3c2c1 [Example 15]	–	100 nM	10 nM	–	–
O=C(NO)[C@H]1Cc2c([nH]c3ccccc23)CN1S(=O)(=O)c1ccc(Oc2ccccc2)cc1 [Example 32, R-2-(4-phenoxybenzenesulfonyl)-1,2,3,4-tetrahydro-9H-pyrido(3,4-b)-indole-3-hydroxamic acid]	110 to 111 °C	60 nM	–	–	–
O=C(O)[C@H]1Cc2ccccc2CN1S(=O)(=O)c1ccc2oc3ccccc3c2c1 [Example 46]	218 to 219 °C	–	–	3000 nM	300 nM
COc1ccc(S(=O)(=O)Oc2ccc3c(c2)CN(S(=O)(=O)c2ccc(OC)cc2)[C@@H](C(=O)NO)C3)cc1 [Example 22]	–	30 nM	8 nM	–	–
O=C(O)[C@H]1Cc2ccccc2CN1S(=O)(=O)c1ccc(Sc2ccccc2)cc1 [Example 43]	–	–	–	20000 nM	200 nM
O=C(NO)C1Cc2ccccc2CN1S(=O)(=O)c1ccccc1 (centres unmarked) [Example 1]	–	300 nM	–	–	–
O=C(O)[C@H]1Cc2ccccc2CN1S(=O)(=O)c1ccc(-c2ccccc2)cc1 [Example 34]	205 °C	–	–	500 nM	10 nM
CCOC(=O)Nc1ccc(S(=O)(=O)N2Cc3ccccc3CC2C(=O)NO)cc1 (centres unmarked) [Example 6]	–	500 nM	30 nM	–	–
O=C(O)[C@H]1Cc2ccccc2CN1S(=O)(=O)c1ccc(-c2ccc(Cl)cc2)cc1 [Example 35]	207 to 209 °C	–	–	100 nM	5 nM
COc1ccc(CC(=O)Nc2cccc(S(=O)(=O)N3Cc4ccccc4CC3C(=O)NO)c2)cc1 (centres unmarked) [Example 8]	–	3000 nM	200 nM	–	–
COc1ccc(S(=O)(=O)N2Cc3cc4c(cc3CC2C(=O)NO)OCO4)cc1 (centres unmarked) [Example 24, 2-(4-Methoxybenzenesulfonyl)-6,7-methylenedioxy-1,2,3,4-tetrahydroisoquinoline-3-hydroxamic acid]	166 °C	60 nM	20 nM	–	–
O=C(NO)C1Cc2ccccc2CN1S(=O)(=O)c1ccc(C(O)c2ccccc2)cc1 (centres unmarked) [Example 19]	–	2000 nM	300 nM	–	–
CC(=O)Nc1ccc(S(=O)(=O)N2Cc3ccccc3CC2C(=O)NO)cc1 (centres unmarked) [Example 4]	–	700 nM	100 nM	–	–
